In ChEMBL document CHEMBL3244372, “Cholecystokinin (pancreozymin). 3. Synthesis and properties of an analogue of the C-terminal heptapeptide with serine sulfate replacing tyrosine sulfate” (1977):
Calls of active or inactive are those of the source. The calls are words filed in the database; no cut-off is given here. Square brackets hold non-standard residues; d marks the D form. Peptide text beside a SMILES is read from it. sY = N[C@@H](Cc1ccc(OS(=O)(=O)O)cc1)C(=O)O

How the values were obtained:
Cavia porcellus [1] = species: Cavia porcellus; assay: Increase in [Ca2+] efflux from guinea pig pancreatic acinar cells measured for 5 mins relative to control; type: functional
[2] = Increase in [Ca2+] efflux from guinea pig pancreatic acinar cells at 10^-8 M assessed per minute relative to control; type: functional, Cavia porcellus
Cavia porcellus [3] = species: Cavia porcellus; assay: Increase in [Ca2+] efflux from guinea pig pancreatic acinar cells at 3 x 10^-11 M measured for 5 mins relative to control; type: functional

SMILES	Activity (Cavia porcellus [1])	Activity [2]	Activity (Cavia porcellus [3])
CSCC[C@H](NC(=O)[C@H](Cc1c[nH]c2ccccc12)NC(=O)CNC(=O)[C@H](CCSC)NC(=O)[C@@H](N)Cc1ccc(O)cc1)C(=O)N[C@@H](CC(=O)O)C(=O)N[C@@H](Cc1ccccc1)C(N)=O (H-YMGWMDF-NH2)	Active		
CSCC[C@H](NC(=O)[C@H](Cc1c[nH]c2ccccc12)NC(=O)CNC(=O)[C@H](CCSC)NC(=O)[C@@H](N)COS(=O)(=O)O)C(=O)N[C@@H](CC(=O)O)C(=O)N[C@@H](Cc1ccccc1)C(N)=O	Active		
CSCC[C@H](NC(=O)[C@H](Cc1c[nH]c2ccccc12)NC(=O)CNC(=O)[C@H](CCSC)NC(=O)[C@@H](N)Cc1ccc(OS(=O)(=O)O)cc1)C(=O)N[C@@H](CC(=O)O)C(=O)N[C@@H](Cc1ccccc1)C(N)=O (H-[sY]MGWMDF-NH2)	Active	26.2%	Active
CSCC[C@H](NC(=O)[C@H](Cc1c[nH]c2ccccc12)NC(=O)CNC(=O)[C@H](CCSC)NC(=O)[C@@H](N)CO)C(=O)N[C@@H](CC(=O)O)C(=O)N[C@@H](Cc1ccccc1)C(N)=O (H-SMGWMDF-NH2)	Active		
